# Assay results as given in US20060069084A1, “Methods of inhibiting kinases” (priority 2001, published 2006).
# Key:
# Assay type in all cases: biochemical
# Details in all cases: inhibit 50% of activity at 50 μM
# TYK2 = target: T1, TYK2 (Homo sapiens, UniProt P29597); experiment: TYK2 kinase domain capture-based ELISA kinase assay
# T1 construct: The kinase domain of humanTYK2 was amplified from A549 mRNA; His tag (from pBlueBacHis2A vector; nickel chelate purification) (N); made in house; host or cells: baculovirus; virus made in Sf9, large-scale expression in High Five insect cells
# T1 sequence (P29597 897-1176 limits assumed): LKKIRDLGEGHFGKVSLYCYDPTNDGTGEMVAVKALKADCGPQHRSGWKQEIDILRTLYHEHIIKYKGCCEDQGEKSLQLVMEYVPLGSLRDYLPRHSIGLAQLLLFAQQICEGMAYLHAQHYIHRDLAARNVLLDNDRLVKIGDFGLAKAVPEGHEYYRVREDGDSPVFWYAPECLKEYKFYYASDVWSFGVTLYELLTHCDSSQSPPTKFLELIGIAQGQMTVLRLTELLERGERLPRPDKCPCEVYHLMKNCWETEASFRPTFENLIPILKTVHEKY
# Procedure: (§1) For screening purposes, compounds were diluted in 96 well plates at a concentration of 50 μM or 20 μM. Plates were warmed at 37° C. for 30 minutes before assay.
# The kinase domain of humanTYK2 was amplified from A549 mRNA using the polymerase chain reaction with the following primers: […]
# TYK2 PCR products were cloned into pBlueBacHis2A (Invitrogen) via the EcoRI site. The recombinant TYK2 baculovirus produced was prepared for transfected into Sf9 insect cells.
# (§2) Baculovirus preparations from each of the JAK family members were infected into five litres of High Five cells (Invitrogen) grown in High Five serum free medium (Invitrogen) to a cell density of approximately 1-2×10^6 cells/ml. Cells are infected with virus at a MOI of 0.8-3.0. Cells were harvested and lysed. JAK kinase domains were purified by affinity chromatography on a Probond (Invitrogen) nickel chelate affinity column.
# (§3) The biotinylated substrate biotin-EGPWLEEEEEAYGWMDF-NH2 (SEQ ID NO:9) (final concentration 5 μM) was used as substrate, and tyrosine phosphorylation was quantitated following transfer to an avidin coated ELISA plate using peroxidase-linked anti-phospho-tyrosine antibody PY20.
# (§4) Inhibitors were added to the assays fifteen minutes prior to the addition of ATP. Inhibitors were added in aqueous DMSO, with DMSO concentrations never exceeding 1%.
# JAK1 = target: T2, JAK1 (Homo sapiens, UniProt P23458); experiment: JAK1 kinase domain capture-based ELISA kinase assay
# T2 construct: The kinase domain of humanJAK1 was amplified from U937mRNA; His tag (from pFastBac HTb vector; nickel chelate purification) (N); made in house; host or cells: baculovirus; virus made in Sf9, large-scale expression in High Five insect cells
# Procedure: as §1
# The kinase domain of humanJAK1 was amplified from U937mRNA using the polymerase chain reaction with the following primers: […]
# JAK1 PCR products were cloned into the pFastBac HTb expression vector (Gibco) via the Xho I and Kpn I sites. The JAK1 plasmid was then transformed into competent DH10Bac cells (Gibco), and the recombinant baculovirus produced prepared for transfection into Sf9 insect cells.
# as §2, §3, §4
# JAK2 = target: T3, JAK2 (Homo sapiens, UniProt O60674); experiment: JAK2 kinase domain capture-based ELISA kinase assay
# T3 construct: The kinase domain of humanJAK2 was amplified from U937mRNA; His tag (from pFastBac HTc vector; nickel chelate purification) (N); made in house; host or cells: baculovirus; virus made in Sf9, large-scale expression in High Five insect cells
# Procedure: as §1
# The kinase domain of humanJAK2 was amplified from U937mRNA using the polymerase chain reaction with the following primers: […]
# JAK2 PCR products were cloned into the pFastBac HTc expression vector (Gibco) via the Sal I and Not I sites. The JAK2 plasmid was then transformed into competent DH10Bac cells (Gibco), and the recombinant baculovirus produced prepared for transfection into Sf9 insect cells.
# as §2, §3, §4
# JAK3 = target: T4, JAK3 (Homo sapiens, UniProt P52333); experiment: JAK3 kinase domain capture-based ELISA kinase assay
# T4 construct: The kinase domain of humanJAK3 was amplified from U937mRNA; His tag (from pFastBac HTb vector; nickel chelate purification) (N); made in house; host or cells: baculovirus; virus made in Sf9, large-scale expression in High Five insect cells
# Procedure: as §1
# The kinase domain of humanJAK3 was amplified from U937mRNA using the polymerase chain reaction with the following primers: […]
# JAK3 PCR products were cloned into the pFastBac HTb expression vector (Gibco) via the Xho I and Kpn I sites. The JAK3 plasmid was then transformed into competent DH10Bac cells (Gibco), and the recombinant baculovirus produced prepared for transfection into Sf9 insect cells.
# as §2, §3, §4
# T2 sequence (P23458 875-1153 limits assumed): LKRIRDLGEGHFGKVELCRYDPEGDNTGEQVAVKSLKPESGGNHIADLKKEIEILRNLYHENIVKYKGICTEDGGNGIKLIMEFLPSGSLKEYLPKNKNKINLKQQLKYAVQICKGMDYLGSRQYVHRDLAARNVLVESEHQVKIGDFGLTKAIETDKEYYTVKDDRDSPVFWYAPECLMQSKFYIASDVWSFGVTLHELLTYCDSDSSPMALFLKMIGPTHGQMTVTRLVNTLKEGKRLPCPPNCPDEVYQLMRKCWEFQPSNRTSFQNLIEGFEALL
# T4 sequence (P52333 822-1111 limits assumed): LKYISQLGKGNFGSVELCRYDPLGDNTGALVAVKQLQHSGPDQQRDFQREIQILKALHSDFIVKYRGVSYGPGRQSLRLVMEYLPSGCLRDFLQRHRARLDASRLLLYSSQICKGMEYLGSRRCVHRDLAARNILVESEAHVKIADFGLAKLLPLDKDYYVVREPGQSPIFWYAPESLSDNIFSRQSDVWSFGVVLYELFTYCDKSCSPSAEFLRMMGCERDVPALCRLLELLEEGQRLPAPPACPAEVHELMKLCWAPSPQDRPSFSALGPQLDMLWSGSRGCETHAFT
# T3 sequence (O60674 849-1124 limits assumed): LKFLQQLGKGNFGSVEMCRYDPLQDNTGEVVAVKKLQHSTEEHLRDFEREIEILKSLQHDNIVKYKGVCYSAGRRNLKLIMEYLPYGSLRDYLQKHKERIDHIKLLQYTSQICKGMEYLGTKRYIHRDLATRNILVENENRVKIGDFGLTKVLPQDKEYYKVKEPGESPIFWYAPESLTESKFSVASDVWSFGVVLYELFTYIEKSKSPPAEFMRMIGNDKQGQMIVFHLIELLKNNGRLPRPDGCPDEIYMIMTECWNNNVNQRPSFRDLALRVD
SMILES,IC50 (TYK2; Table 5) [µM],IC50 (JAK1; Table 5) [µM],IC50 (JAK2; Table 5) [µM],IC50 (JAK3; Table 5) [µM],IC50 (TYK2; Table 6) [µM],IC50 (JAK1; Table 6) [µM],IC50 (JAK2; Table 6) [µM],IC50 (JAK3; Table 6) [µM]
O=C(NCCO)c1cccc(-c2cn3ccnc3c(Nc3ccc(N4CCOCC4)cc3)n2)c1,< 50,< 50,< 50,< 50,–,–,–,–
COc1cccc(OC)c1-c1cn2ccnc2c(Nc2ccc(N3CCOCC3)cc2)n1,< 50,< 50,< 50,< 50,–,–,–,–
Fc1ccccc1-c1cn2ccnc2c(NCc2ccccn2)n1,< 50,< 50,< 50,< 50,–,–,–,–
COc1cc(-c2cn3ccnc3c(NCc3ccccn3)n2)cc(OC)c1OC,< 50,< 50,< 50,< 50,–,–,–,–
CC(=O)Nc1ccc(Nc2nc(-c3ccc(O)cc3)cn3ccnc23)cc1,< 50,< 50,< 50,< 50,–,–,–,–
COc1ccc(Nc2nc(-c3ccc4ccccc4c3)cn3ccnc23)cn1,< 50,< 50,< 50,< 50,–,–,–,–
CC(C)[C@H](CO)Nc1nc(-c2cccc(N)c2)cn2ccnc12,< 50,< 50,< 50,< 50,–,–,–,–
CC(=O)Nc1cccc(-c2cn3ccnc3c(N[C@@H](CO)C(C)C)n2)c1,< 50,< 50,< 50,< 50,–,–,–,–
Cc1ccc(S(=O)(=O)Nc2ccc(Nc3nc(-c4ccccc4)cn4ccnc34)cc2)cc1,< 50,< 50,< 50,< 50,–,–,–,–
CCCC/C=C/c1cn2ccnc2c(Nc2cccc(OCC(=O)N(C)C)c2)n1,< 50,< 50,< 50,< 50,–,–,–,–
COc1cc(-c2cn3ccnc3c(N[C@@H]3CCN(Cc4ccccc4)C3)n2)cc(OC)c1OC,< 50,< 50,< 50,< 50,–,–,–,–
COc1cc(-c2cn3ccnc3c(N3CCCN(C)CC3)n2)cc(OC)c1OC,< 50,< 50,< 50,< 50,–,–,–,–
c1ccc(CNc2nc(Nc3cccc4[nH]ccc34)cn3ccnc23)cc1,< 50,< 50,< 50,< 50,–,–,–,–
c1ccc2c(-c3cn4ccnc4c(Nc4ccc5cn[nH]c5c4)n3)cccc2c1,< 50,< 50,< 50,< 50,–,–,–,–
c1ccc(-c2cc(Nc3ccc4[nH]ccc4c3)c3nccn3c2)cc1,< 50,< 50,< 50,< 50,–,–,–,–
FC(F)(F)c1cc(-c2cn3ccnc3c(NCC3CCOCC3)n2)cc(C(F)(F)F)c1,–,–,–,–,> 50,> 50,< 50,> 50
c1ccc(-c2cn3ccnc3c(NCc3ccncc3)n2)cc1,–,–,–,–,> 50,< 50,> 50,> 50
O=C(O)c1cccc(-c2cn3ccnc3c(Nc3ccc(N4CCOCC4)cc3)n2)c1,–,–,–,–,< 50,< 50,< 50,< 50
O=C(O)c1ccc(-c2cn3ccnc3c(N3CCN(c4ccccn4)CC3)n2)cc1,–,–,–,–,> 50,< 50,> 50,> 50
Cc1ccc(S(=O)(=O)Nc2ccc(Nc3nc(-c4cccc(C(=O)NCCN(C)C)c4)cn4ccnc34)cc2)cc1,–,–,–,–,> 50,< 50,< 50,> 50
CC(=O)Nc1ccc(Nc2nc(-c3ccc4ccccc4c3)cn3ccnc23)cc1,–,–,–,–,< 50,< 50,< 50,> 50
CCN(CCO)c1ccc(Nc2nc(-c3cc(C(F)(F)F)cc(C(F)(F)F)c3)cn3ccnc23)cc1,–,–,–,–,> 50,> 50,< 50,> 50

SMILES,IC50 (TYK2; Table 5) [µM],IC50 (JAK1; Table 5) [µM],IC50 (JAK2; Table 5) [µM],IC50 (JAK3; Table 5) [µM],IC50 (TYK2; Table 6) [µM],IC50 (JAK1; Table 6) [µM],IC50 (JAK2; Table 6) [µM],IC50 (JAK3; Table 6) [µM]
Clc1ccccc1-c1cn2ccnc2c(NCc2ccccn2)n1,–,–,–,–,> 50,> 50,< 50,> 50
CCC(CO)Nc1nc(-c2ccco2)cn2ccnc12 (stereo not shown),–,–,–,–,> 50,< 50,< 50,< 50
O=C(O)c1ccc(-c2cn3ccnc3c(N3CCN(c4ccncc4)CC3)n2)cc1,–,–,–,–,> 50,> 50,< 50,> 50
CCN(CCO)c1ccc(Nc2nc(-c3c(OC)cccc3OC)cn3ccnc23)cc1,–,–,–,–,> 50,< 50,< 50,> 50
Cc1ccc(S(=O)(=O)Nc2ccc(Nc3nc(-c4cccc(N)c4)cn4ccnc34)cc2)cc1,–,–,–,–,< 50,< 50,< 50,> 50
CCCC/C=C/c1cn2ccnc2c(NCCc2cccnc2)n1,–,–,–,–,> 50,> 50,> 50,< 50
CCCC/C=C/c1cn2ccnc2c(NCc2ccncc2)n1,–,–,–,–,> 50,> 50,> 50,< 50
CC(C)[C@H](CO)Nc1nc(-c2ccc(C(=O)O)cc2)cn2ccnc12,–,–,–,–,> 50,> 50,< 50,< 50
O=C(O)c1ccc(-c2cn3ccnc3c(Nc3ccc(Cl)cc3)n2)cc1,–,–,–,–,< 50,< 50,< 50,< 50
CC(=O)Nc1ccc(Nc2nc(-c3ccccc3F)cn3ccnc23)cc1,–,–,–,–,< 50,< 50,< 50,< 50
c1ccc(Nc2nc(-c3ccc4c(c3)OCO4)cn3ccnc23)cc1,–,–,–,–,< 50,< 50,< 50,> 50
c1cn2cc(-c3ccc4c(c3)OCO4)nc(NC3CC3)c2n1,–,–,–,–,< 50,< 50,> 50,> 50
Oc1ccc(-c2cn3ccnc3c(Nc3ccccc3)n2)cc1,–,–,–,–,> 50,< 50,< 50,> 50
CN1CCN(c2nc(-c3cccnc3)cn3ccnc23)CC1,–,–,–,–,> 50,< 50,> 50,> 50
CC(=O)Nc1cccc(-c2cn3ccnc3c(Nc3ccccc3)n2)c1,–,–,–,–,< 50,< 50,< 50,< 50
COc1cc(-c2cn3ccnc3c(NCC3CC3)n2)ccc1O,–,–,–,–,> 50,< 50,> 50,> 50
CC(=O)c1ccc(-c2cn3ccnc3c(Nc3ccccc3)n2)s1,–,–,–,–,< 50,< 50,< 50,< 50
c1ccc(Nc2nc(-c3cccnc3)cn3ccnc23)cc1,–,–,–,–,< 50,< 50,< 50,< 50
Oc1cccc(-c2cn3ccnc3c(NC3CC3)n2)c1,–,–,–,–,< 50,< 50,< 50,> 50
CCNc1nc(-c2cccc(O)c2)cn2ccnc12,–,–,–,–,> 50,< 50,< 50,< 50
COc1cc(-c2cn3ccnc3c(NC3CC3)n2)ccc1O,–,–,–,–,> 50,< 50,< 50,< 50
